Reference: patent US20110177054A1, “USE OF ENDO-LYSOSOMAL SYSTEM AND SECRETED VESICLES (EXOSOME-LIKE) IN TREATMENTS AND DIAGNOSTICS BASED ON SMALL RNA AND EXPERIMENTAL STUDY OF SMALL RNA” (priority 2008, published 2011)

Tests used:
[1] = system: miR-206 activity in Mono-Mac6 cells; experiment: miR-206 / estrogen receptor 3'UTR dual luciferase reporter after siRNA knockdown, monocytes; type: cell-based; settings: for specific activity of miR-206 (estrogen receptor-α 3'UTR reporter): Example 1, 50 nM siRNA, miR-206 vs miR-K12-4 plasmid, 30 h; for specific activity of miR-206: Example 2, monocytic cells (FIG. 12e), 10 nM siRNA
Experimental: (§1) FIG. 4: Members of the ESCRT complex affect miRNA activity but not localization of GW182 to the MVB. (A) Confocal micrography showing cells loaded with N-Rh-PE to label the MVB one day after transfection with GFP-GW182 and 50 nM of siRNA targeting Alix or vps36. […] Knockdown of some members of the ESCRT complex inhibits activity of Let-7a. Analysis of the levels of Let-7a vs mutated site expression for the control, tsg101, vps36, hrs, alix, and GW 182. Cells were transfected with plasmids expressing Renilla luciferase attached to an intact or mutated Let-7a target site, 50 nM siRNA, and pGL3 expressing firefly luciferase (n=6). (C) Knockdown of some members of the ESCRT complex inhibits activity of miR-206. Analysis of the percentage of expression of miR-206 target for the control, tsg101, vps36, hrs, alix, and GW 182. Cells were transfected with 50 nM siRNA, plasmids expressing miR-206 or miR-K12-4 and the estrogen receptor 3′UTR inserted in the dual luciferase plasmid psiCHECK™ (Promega) (n=4). Thirty hours later luciferase activity as assessed.
Cells were transfected with 0.2 ug plasmid containing the 3′UTR (3′ untranslated region) of ESR (Estrogen Receptor) containing a target for miR-206 (Adams, B. D., Furneaux, H., & White, B. A. The micro-ribonucleic acid (miRNA) miR-206 targets the human estrogen receptor-alpha (ERalpha) and represses ERalpha messenger RNA and protein expression in breast cancer cell lines. Mol. Endocrinol. 21, 1132-1147 (2007)), 2 μg of either plasmid expressing miR-206 or K12-4, and either control siRNA or siRNA targeting tsg101, vps36, hrs, alix, or GW182 (50 nM). Luciferase activity was read 30 h later, using the Dual Luciferase Reporter Assay Kit (Promega, Madison, USA) on a Glo-Max Multi fluorescence reader (Promega). Percent increase in siRNA activity was calculated as (e.g. tsg101): ([Firefly/Renilla luciferase] K4 miRNA+tsg101 siRNA/[Firefly/Renilla luciferase]+206 miRNA+tsg101 siRNA)/([Firefly/Renilla luciferase]+miRNA K4+control siRNA/[Firefly/Renilla luciferase]+miRNA 206+control siRNA).
For all experiments except for assays of miRNA activity 5×10^6 cells were transfected with a Nucleofector II in Solution V (Amaxa, Cologne, Germany) according to the manufacturer's instructions. For inhibition of gene expression 50 nM of siRNA was used. […]
To test miRNA activity, cells were transfected with 0.2 ug plasmid expressing the 3′UTR of ESR which contains a target site for miR-206, 2 μg of either plasmid expressing miR-206 or K12-4, and 10 nM siRNA. Luciferase activity was read 30 h later, using the Dual Luciferase Reporter Assay Kit (Promega, Madison, USA) on a Glo-Max Multi fluorescence reader (Promega). […] Percent miRNA activity was calculated as 100−percent inhibition luciferase expression.

[2] = system: multivesicular body (MVB); experiment: Confocal microscopy of N-Rh-PE labelled MVB and GFP-GW182 after siRNA transfection; type: cell-based
Experimental: as §1
FIG. 12: Knockdown of ESCRT complex components compromises miRNA activities. (a) GW182, but not Dcp1a associates with ubiquitinated proteins. Immunoprecipitating antibody is shown above lane, blotting antibody is inscribed in white (b) Knockdown of ESCRT complex components causes accumulation of GW182. (c) Co-localization of GFP-GW182 and N-Rh-PE was examined 36 h after siRNA transfection. […] U6 RNA was used as a loading control. (e) Knockdown of some members of the ESCRT complex inhibits activity of miR-206. (Anova, n=3, p=0.015, F=6.577, a=0.05). Lack of detectable miR206 expression in monocytic cells and accumulation of miR206 upon monocyte transfection were confirmed by northern blot.
Cells were concentrated by centrifugation (90 g, 5 min), resuspended in culture media, and analyzed immediately. Images were captured with a Zeiss LSM 510 confocal microscope with 488 nm and 561 nm lasers using the smallest planes (0.4-1.2 μm) allowed by the brightness of the fluorophores used and a 63× objective lens. Filters used were 500-530 nm (GFP) and 550-650 (N-Rhodamine-PhosphatidylEthanolamine, […] (RFP)). Images were analyzed using ImageJ.
Procedures were performed as described (Vidal, M., Mangeat, P., & Hoekstra, D. Aggregation reroutes molecules from a recycling to a vesicle-mediated secretion pathway during reticulocyte maturation. J. Cell Sci. 110, 1867-1877 (1997)). Essentially, cells were washed twice in PBS and 3 μM N-Rh-PE (Avanti Polar Lipids, Alabaster, Ala., USA) in ethanol was injected with a Hamilton syringe into the cell suspension. After vortexing cells were incubated for 1.5 h at 4° C. Cells were washed twice, resuspended in culture media and incubated at 37° C. with 5% CO2 for 4 h before confocal analysis.
Images were captured with a Zeiss LSM 510 confocal microscope with 488 nm and 561 nm lasers and a 63× objective lens. Filters used were 500-530 nm (GFP) and 550-650 nm (N-Rh-PE, RFP).
The Mono-Mac6 cell line (DSMZ, Braunschweig, Germany ACC-124) was cultured in RPMI 1640 containing 10% FBS, non-essential amino acids (Invitrogen, Paris, France), and OPI media supplement (Sigma-Aldrich). Alternatively, Mono-Mac6 were cultured in X-Vivo-15 serum-free media (Lonza, Levallois, France). Hela cells were grown in DMEM supplemented with 5% FBS. Cells were loaded with 3 μM N-Rh-PE (Avanti Polar Lipids, Alabaster, Ala., USA) as described (Vidal, M., Mangeat, P. & Hoekstra, D. Aggregation reroutes molecules from a recycling to a vesicle-mediated secretion pathway during reticulocyte maturation. J Cell Sci 110 (Pt 16), 1867-77 (1997)).

[3] = Example 2, 36 h after siRNA transfection

Substance | specific activity of miR-206 (estrogen receptor-α 3'UTR reporter) [1] | specific activity of miR-206 [1] | co-localization of GW182 with MVB ([2]; Example 1, 50 nM siRNA, GFP-GW182 and N-Rh-PE) | MVB size / perinuclear distribution ([2]; Example 1, 50 nM siRNA, in some cells) | GFP-GW182 localization to MVB [2, 3] | MVB size / perinuclear distribution [2, 3]
Alix siRNA: Qiagen siRNA targeting Alix: AAGAGCTGTGTGTTGTTCAAT (SEQ ID NO. 5), GAGGTACTTTATACTAACATA (SEQ ID NO. 6) (two separate commercial siRNAs, chemistry not given here) | inhibited | inhibited | not grossly disrupted | increase in the perinuclear distribution of MVB | remained unaltered | enhanced perinuclear MVB distribution
Hrs siRNA: Qiagen siRNA targeting Hrs: CCGGAACGAGCCCAAGTACAA (SEQ ID NO. 1), GCACGTCTTTCCAGAATTCAA (SEQ ID NO. 2) (two separate commercial siRNAs, chemistry not given here) | inhibited | inhibited |  |  | remained unaltered | 
